Laboratory results as given in patent publication US20260042764A1, “COMPOSITIONS AND METHODS FOR INHIBITION OF KRAS” (TheRas, Inc., priority 2022, published 2026).

What was measured:
[1] = tested on: AsPC-1 cells (KRAS G12D); assay: 3D Cell viability assay in AsPC-1 cells (Biological Example 6); format: cell-based; conditions: AsPC-1 (KRAS G12D) spheroids, 72 hours
Experimental: (§1) Biological Example 6: 3D Cell viability assay in AsPC-1, SW1900, HPAC, Capan-2, RKN, H358, HCT116, KP-2, H1573, A549, MKN1, and HT1080 cells
(§2) The inhibition of cellular viability as a result of test compound treatment in a spheroid assay was measured using the CellTiter-Glow 3D Cell Viability Assay (Promega).
(§3) On Day 1, 1000 cells per well were seeded in 150 μL of complete growth media supplemented with 10% fetal bovine serum (FBS) and incubated at 37° C., in the presence of 5% CO2 in 96-well ultra-low attachment microplates (Corning) for 48 hours undisturbed to allow spheroids to form.
(§4) Following spheroid formation, cells were treated with compounds diluted in DMSO at 0.25% final DMSO concentration. Compounds were dosed in a 9-point concentration curve with three-fold dilution between concentrations. Cells were incubated in the presence of compound for 72 hours at 37° C., in the presence of 5% CO2.
(§5) Following this incubation period, the kit-provided CTG reagent was allowed to equilibrate for 30 minutes at room temperature, 150 μL of equilibrated CTG reagent was added to each well, and the plate was sealed before shaking at 250 rpm for 10 minutes at room temperature to lyse the cells, 150 μL of lysate per well was transferred to a 96-well plate and luminescence was read on a CLARIOstar plate reader.
(§6) Data was imported into the Prism software package (Graphpad) and EC50 values were calculated using the log (inhibitor) vs, response—variable slope (Four parameters) model.

[2] = tested on: MKN1 cells (KRAS amplification); assay: 3D Cell viability assay in MKN1 cells (Biological Example 6); format: cell-based; conditions: MKN (MKN1, KRAS amplification) spheroids, 72 hours
Experimental: as §1, §2, §3, §4, §5, §6

[3] = tested on: SW1900 cells (KRAS G12D); assay: Cell-based pERK HTRF assay in SW1900 cells (Biological Example 5)
Experimental: (§7) Biological Example 5: Cell-based PERK HTRF assay in AsPC-1, SW1900, HPAC, Capan-2, RKN, H358, HCT116, KP-2, H1573, A549, MKN1, and HT1080 cells
(§8) The inhibition of ERK phosphorylation, as measured using the HTRF Advanced Phospho-ERK 1/2 (Thr202/Tyr204) Detection Assay kit (Perkin Elmer), was used to determine the effectiveness of test compounds in disrupting KRAS-driven protein/effector signaling in cells.
(§9) On day 1, cells were seeded into 96-well plates at 2.5×10^4 cells/well in 100 μL of complete growth media supplemented with 10% fetal bovine serum (FBS) and incubated at 37° C., in the presence of 5% CO2.
(§10) On day 2, cells were treated with compounds diluted in DMSO at 0.25% final DMSO concentration. Compounds were dosed in a 9-point concentration curve with three-fold dilution between concentrations. Cells were incubated in the presence of compound for two hours at 37° C. Following this treatment period, cells were harvested by aspirating the media, adding 40 μL of kit-supplied 1x lysis buffer per well, and shaking for 30 minutes at 250 rpm at room temperature.
(§11) Following cell lysis, samples were homogenized by pipetting up and down twenty times and 16 μL of cell lysate per well was transferred from the 96-well cell culture plate to two wells of a 384-well detection plate. A complete detection buffer was prepared by diluting D2 and Eu Cryptate antibodies 1:20 in kit-provided detection solution, 4 μL of complete detection buffer was then added to each well with lysate. Plates were incubated with gentle rocking for 24 hours at 4° C.
(§12) Following this incubation period, plates were centrifuged at 500×g for one minute and analyzed on a CLARIOstar plate reader. Data was imported into Microsoft Excel and the signal from the 665 nm channel was divided by the signal from the 620 nm channel. % pERK was calculated as: […]
(§13) Data was imported to the Prism software package (Graphpad) and EC50 values were calculated using the log (inhibitor) vs, response—variable slopc (Four parameters) model.

[4] = tested on: H358 cells (KRAS G12C); assay: 3D Cell viability assay in H358 cells (Biological Example 6); format: cell-based; conditions: H358 (KRAS G12C) spheroids, 72 hours
Outline: (§14)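 3D spheroid viability: 1000 cells/well, 48 h spheroid formation (10% FBS, 37 °C, 5% CO2); 9-pt 3-fold dose curve, 0.25% DMSO, 72 h; CTG 3D luminescence; EC50 by 4-parameter log(inhibitor) vs response fit.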

[5] = tested on: SW1900 cells (KRAS G12D); assay: 3D Cell viability assay in SW1900 cells (Biological Example 6); format: cell-based; conditions: SW1990 (text: SW1900, KRAS G12D) spheroids, 72 hours
Outline: as §14

[6] = tested on: MKN1 cells (KRAS amplification); assay: Cell-based pERK HTRF assay in MKN1 cells (Biological Example 5)
Experimental: as §7, §8, §9, §10, §11, §12, §13

[7] = tested on: RKN cells (KRAS G12V); assay: 3D Cell viability assay in RKN cells (Biological Example 6); format: cell-based; conditions: RKN (KRAS G12V) spheroids, 72 hours
Experimental: as §1, §2, §3, §4, §5, §6

[8] = SW1990 cells (text: SW1900, KRAS G12D)
[9] = MKN cells (MKN1, KRAS amplification)
[10] = Homo sapiens, SW1990, SW1990 cells (text: SW1900, KRAS G12D)
[11] = Homo sapiens, MKN-1, MKN cells (MKN1, KRAS amplification)

Row | IC50 [1] [nM] | IC50 [2] [nM] | IC50 [3, 8] [nM] | IC50 [4] [nM] | IC50 [5] [nM] | IC50 [6, 9] [nM] | IC50 ([1]; Homo sapiens, ASPC1) [nM] | IC50 ([2]; Homo sapiens, MKN-1) [nM] | IC50 [3, 10] [nM] | IC50 ([4]; Homo sapiens, NCI-H358) [nM] | IC50 ([5]; Homo sapiens) [nM] | IC50 [6, 11] [nM] | Structure (SMILES) | IC50 [7] [nM]
1 | ≤ 100 | ≤ 100 | ≤ 100 | ≤ 100 | ≤ 100 | ≤ 100 |  |  |  |  |  |  | CCN(c1nc(OCC23CCCN2CC(F)C3)nc2c(F)c(-c3ccc(F)c4sc(N)c(C#N)c34)c(C(F)(F)F)cc12)C1CC(C)N(C(=O)C2CC2(F)F)C1 (stereo not drawn) [Compound 732] | ≤ 100
2 |  |  |  |  |  |  | ≤ 100 | ≤ 100 | ≤ 100 | ≤ 100 | ≤ 100 | ≤ 100 | CCN(c1nc(OC[C@@]23CCCN2C[C@H](F)C3)nc2c(F)c(-c3ccc(F)c4sc(N)c(C#N)c34)c(C(F)(F)F)cc12)[C@H]1C[C@H](C)N(C(=O)OC)C1 (atropisomer, axis not shown) [Compound 704] | ≤ 100
3 |  |  |  |  |  |  | ≤ 100 | ≤ 100 | ≤ 100 | ≤ 100 | ≤ 100 | ≤ 100 | CCN(c1nc(OC[C@@]23CCCN2C[C@H](F)C3)nc2c(F)c(-c3ccc(F)c4sc(N)c(C#N)c34)c(C(F)(F)F)cc12)[C@H]1CC(=O)N2CCC[C@@H]12 (atropisomer, axis not shown; (aS)) [Compound 697, 2-amino-4-((S)-4-(ethyl((1S,7aS)-3-oxohexahydro-1H-pyrrolizin-1-yl)amino)-8-fluoro-2-(((2R,7aS)-2-fluorotetrahydro-1H-pyrrolizin-7a(5H)-yl)methoxy)-6-(trifluoromethyl)quinazolin-7-yl)-7-fluorobenzo[b]thiophene-3-carbonitrile] | ≤ 100

Further lines, the compound ahead of its results:

Row | Structure (SMILES) | IC50 [1] [nM] | IC50 [2] [nM] | IC50 [3, 8] [nM] | IC50 [4] [nM] | IC50 [5] [nM] | IC50 [6, 9] [nM] | IC50 ([1]; Homo sapiens, ASPC1) [nM] | IC50 ([2]; Homo sapiens, MKN-1) [nM] | IC50 [3, 10] [nM] | IC50 ([4]; Homo sapiens, NCI-H358) [nM] | IC50 ([5]; Homo sapiens) [nM] | IC50 [6, 11] [nM] | IC50 [7] [nM]
4 | CCC(=O)N1C[C@@H](N(CC)c2nc(OC[C@@]34CCCN3C[C@H](F)C4)nc3c(F)c(-c4ccc(F)c5sc(N)c(C#N)c45)c(C(F)(F)F)cc23)C[C@H]1C [Compound 442] |  |  |  |  |  |  | ≤ 100 | ≤ 100 | ≤ 100 | ≤ 100 | ≤ 100 | ≤ 100 | ≤ 100
5 | CCN(c1nc(OC[C@@]23CCCN2C[C@H](F)C3)nc2c(F)c(-c3ccc(F)c4sc(N)c(C#N)c34)c(C(F)(F)F)cc12)[C@H]1CCN(C(=O)c2ncco2)C1 (atropisomer, axis not shown) [Compound 584] |  |  |  |  |  |  | ≤ 100 | ≤ 100 | ≤ 100 | ≤ 100 | ≤ 100 | ≤ 100 | ≤ 100
6 | CCN(c1nc(OC[C@@]23CCCN2C[C@H](F)C3)nc2c(F)c(-c3ccc(F)c4sc(N)c(C#N)c34)c(C(F)(F)F)cc12)[C@H]1CCN(C(=O)C(C)C)C1 [Compound 332] |  |  | ≤ 100 |  |  | ≤ 100 | ≤ 100 | ≤ 100 |  | ≤ 100 | ≤ 100 |  | ≤ 100
